Test results from patent US11033569B2, “Compounds,Compositions, and methods for the treatment of disease” (Sperovie Biosciences, Inc., priority 2016, dated 2021).
Entries after “also recorded” stand apart in the source; their conditions may differ.

Assays:
NF-κβ-luc reporter = NF-κβ-luc reporter activation in HEK293 (SZ14) cells, screen for STING agonists; assay type: cell-based; settings: digitonin buffer, 5 hours, read-out: NF-KB EC50
Description: (§1) ISG54 or NF-κβ activity was determined using the Steady-glo buffer system (Promega), and are expressed as EC50 values summarized in Table 3 below. […] This calculation is applicable for compounds with enzyme inhibition activity, as the baseline for an untreated sample may be set at 100% enzymatic activity, and therefore % inhibition is evaluated based on this 100% maximal basis. For these studies, the EC50 value relates to the concentration required to achieve a value 50% activity level above the untreated sample set at 0%.
(§2) Data are shown as fold induction over cells that received DMSO (compound carrier) alone as the mean, +/−standard deviation of duplicate wells per stimulant.

THP1 cells = experiment: Type III IFN (IL-29) production in THP1 cells (ELISA); assay type: cell-based; settings: 21 hrs
Description: Level of IL-29 in culture supernatant was determined using ELISA. Results shown are the average±standard deviation of duplicate wells.

[1] = Oral maximum tolerated dose study in BALB/c mice; assay type: in vivo
Description: In order to investigate the maximum tolerated dosage of orally administered compounds, 15 female BALB/c mice between 7-10 weeks old were split into three treatment groups. Each group was administered either Cmd 1 or vehicle orally, according to the schedule outlined in Table 5 below. Cmd 1 was provided at 10 mL/kg (0.200 mL/20 g mouse).

ISG54 ISRE-luc reporter = ISG54 ISRE-luc reporter activation in HEK293 (SZ14) cells, screen for STING agonists; assay type: cell-based; settings: digitonin buffer, 5 hours, read-out: IRF EC50
Description: as §1, §2

[2] = test system: 4T1.luc2 orthotopic murine breast carcinoma; experiment: 4T1.luc2 orthotopic murine breast carcinoma model; assay type: in vivo, mice
Description: The efficacy of intraperitoneal administration of Cmd 1 was investigated in the 4T1.luc2 orthotopic murine breast carcinoma model. Thirty female BALB/c mice between 7-10 weeks old were randomized into four treatment groups based on Day 1 body weight, and the treatment was carried out according to the regimen outlined in Table 4 below. Cmd 1 was dissolved in saline and administered at 10 mL/kg (0.200 mL/20 g mouse), with a cell injection volume of 0.05 mL/mouse.
Each animal was monitored individually. The endpoint of the experiment was a tumor volume of […] or 45 days. Animals in Groups 1 and 2 were subjected to whole body bioluminescent imaging starting on Day 5 and once a week thereafter (Days 12, 19, 26, 33, and 41). At the endpoint, blood and tissue (lung, lymph nodes, spleen, and tumor) was analyzed for presence of metastases and biomarker (CD45, CD3, CD4, CD8, CD11b, CD25, Ly-6G, Ly-6C, FoxP3) levels.

[3] = 60 mg/kg po bid x 10 (first day 1 dose), n=5
[4] = oral, once daily or twice daily up to 60 mgkg/day

With `CCCCCCCCCCOc1ccc(C(=O)Oc2ccc(CSP3(=O)OC[C@H]4O[C@@H](n5cnc6c(N)ncnc65)[C@H](F)[C@@H]4OP(=O)(O)OC[C@H]4O[C@@H](n5ccc(=O)[nH]c5=O)[C@H](F)[C@@H]4O3)cc2)cc1.N` (stereo partly drawn) [Cmd 1] the EC50 (NF-κβ-luc reporter) was 50 to 500 nM, the “type III interferon (IL-29) production” value (THP1 cells) was “induce type III interferon (IL-29) production” and the NTR [1, 3] was 0. For the same molecule, the NTRm [1, 3] was 0, the TR [1, 3] was 0 and the “BW Nadir” value ([1]; 60 mg/kg po bid x 10 (first day 1 dose), nadir day (11)) was −3.6%. For the same molecule, the NTR ([1]; 60 mg/kg po qd x 10, n=5) was 0, the NTRm ([1]; 60 mg/kg po qd x 10, n=5) was 0 and the TR ([1]; 60 mg/kg po qd x 10, n=5) was 0. For the same molecule, the adverse clinical signs [1, 4] was “no adverse clinical signs”, the tolerability [1, 4] was “well tolerated” and the EC50 (ISG54 ISRE-luc reporter) was under 50 nM. For the same molecule, the “tumor growth / tumor volume” value ([2]; 10 mg/kg ip days 5, 7, 9, 11, 14, 18, compared with control) was “significant decline in tumor volume; also recorded: significant decrease in tumor growth”, the tumor growth ([2]; 4T1 breast cancer model, compared with vehicle (FIG. 75)) was “considerable tumor growth inhibition” and the “tumor growth (luminescence images)” value ([2]; intraperitoneal administration, compared with vehicle (FIG. 82)) was “considerable tumor growth inhibition”.
